Laboratory results as given in patent EP0518675A2, “Cyclic renin inhibitors” (MERCK & CO. INC., priority 1991, dated 1992).
Square brackets hold non-standard residues; d marks the D form. Peptide text beside a SMILES is read from it. * marks the point of attachment. Sta = CC(C)C[C@H](N)[C@@H](O)CC(=O)O; Isovaleryl = CC(C)CC(=O)*

How the values were obtained:
[1] = test system: conscious sodium-deficient Rhesus monkeys; assay: intravenous evaluation of renin inhibitors in conscious sodium-deficient Rhesus monkeys (blood pressure lowering); assay type: in vivo; details: i.v. bolus injection, mean arterial pressure
Excerpt: The following methods were used for in vivo evaluation of the renin inhibitors of Formua I: Intravenous evaluation of renin inhibitors in conscious sodium-deficient Rhesus monkeys: Rhesus monkeys, male and female, weighing 2.6 - 4.5 Kg, were surgically prepared with chronic arterial and venous catheters and vascular access ports for direct monitoring of mean arterial pressure (MAPI) and heart rate (HR). The animals were maintained on a low sodium diet (1.2 mmol Na/day) plus fruit for a week, and administered LASIX (furosemide) at2.5 mg/Kg, intramuscularly the evening prior to the experiment. The animals had been trained to sit quietly in the chairs with water AD LIBIUM for the duration of the experiment. The inhibitors were administered by bolus injection using 0.5% acetic acid-5% dextrose in water as the vehicle (0.4 ml/Kg), and MAP and HRwere measured. Blood samples were withdrawn at different time intervals beginning at the nadir of hypotensive response. PRA was determined as described above. […] A projected ED50 dose for each inhibitor was calculated using the following formula: ED50 (Test Inhibitor, umoles/Kg) = ED50 (SCRIP) X [IC50 (Test Inhibitor)/IC50 (SCRIP)], where the IC50 values were determined against human plasma renin. […] Percent inhibition of monkey PRA, changes in MAP and HR were calculated and plotted against time. […]

human plasma renin = human plasma renin IC50 determination at pH 7.4; assay type: biochemical; details: against human plasma renin
Experimental: The following method was used for in vitro evaluation of the renin inhibitors of Formula I: The human plasma renin IC50 values for inhibitors of Formula I were determined at pH 7.4 following the procedure described in J. Boger, L.S. Payne, D.S. Perlow, N.S. Lohr, M. Poe, E.H. Blaine, E. H. Elm, T.W. Schorn, B.I. Lamont, T.-Y. Lin, M. Kawai, D.H. Rich and D.F. Veber, J. Med. Chem., 28, 1779 (1985).

IC50 (human plasma renin): 3.7 nM
Compound: CC(C)CC(=O)N[C@@H](Cc1c[nH]cn1)C(=O)N1CCC[C@H]1C(=O)N[C@@H](Cc1ccccc1)C(=O)N[C@@H](Cc1c[nH]cn1)C(=O)N[C@@H](CC(C)C)[C@@H](O)CC(=O)N[C@@H](CC(C)C)C(=O)N[C@@H](Cc1ccccc1)C(N)=O [SCRIP, Iva-His-Pro-Phe-His-Sta-Leu-Phe-NH2] (Isovaleryl-HPFH[Sta]LF-NH2)
i.v. dose of the standard inhibitor required to lower blood pressure by 50% of the maximal response (ED50) [1]: 0.039 µmol/kg
